Reference: publication PMC2659691 (Journal of Medicinal Chemistry, 2009)

Experiments:
T. cruzi TryR = T. cruzi TryR (Trypanosoma cruzi, UniProt P28593); test: TryR inhibition, high-throughput microplate assay; format: biochemical
T. brucei TryR = T. brucei TryR (Trypanosoma brucei brucei, UniProt P39051); test: TryR inhibition, high-throughput microplate assay; format: biochemical
T. brucei TryR, sequence (P39051 whole entry): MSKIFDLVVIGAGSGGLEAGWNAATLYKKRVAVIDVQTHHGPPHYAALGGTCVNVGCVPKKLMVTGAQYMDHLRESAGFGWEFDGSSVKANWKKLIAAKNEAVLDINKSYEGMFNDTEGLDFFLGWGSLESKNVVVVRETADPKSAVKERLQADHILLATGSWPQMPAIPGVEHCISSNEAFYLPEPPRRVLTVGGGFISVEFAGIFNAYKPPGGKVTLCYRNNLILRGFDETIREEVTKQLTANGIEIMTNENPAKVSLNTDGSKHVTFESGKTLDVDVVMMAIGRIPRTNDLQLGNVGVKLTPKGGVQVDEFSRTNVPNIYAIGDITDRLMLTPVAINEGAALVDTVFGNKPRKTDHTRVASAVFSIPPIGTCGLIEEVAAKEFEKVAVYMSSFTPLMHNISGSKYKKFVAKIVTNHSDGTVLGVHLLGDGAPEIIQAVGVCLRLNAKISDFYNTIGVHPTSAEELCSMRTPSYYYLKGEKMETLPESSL

T. cruzi TryR, sequence (P28593 whole entry): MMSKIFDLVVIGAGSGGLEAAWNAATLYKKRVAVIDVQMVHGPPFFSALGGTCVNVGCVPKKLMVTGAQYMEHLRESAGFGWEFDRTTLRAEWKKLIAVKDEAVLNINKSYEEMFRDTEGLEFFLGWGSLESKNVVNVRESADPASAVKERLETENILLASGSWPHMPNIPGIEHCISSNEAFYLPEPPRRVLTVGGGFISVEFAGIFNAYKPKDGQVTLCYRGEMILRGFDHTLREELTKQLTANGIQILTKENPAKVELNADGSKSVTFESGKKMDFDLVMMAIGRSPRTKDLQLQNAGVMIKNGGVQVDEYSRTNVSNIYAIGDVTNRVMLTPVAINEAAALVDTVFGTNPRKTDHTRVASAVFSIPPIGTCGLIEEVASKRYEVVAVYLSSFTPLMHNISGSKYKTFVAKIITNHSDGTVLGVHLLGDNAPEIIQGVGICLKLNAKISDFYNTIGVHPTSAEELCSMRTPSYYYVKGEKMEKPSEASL

| Compound | inhibitory activity against TryR (in words) (T. cruzi TryR) | inhibitory activity against TryR (in words) (T. brucei TryR) |
| --- | --- | --- |
| O=C(CN1C(=O)C2CC=CCC2C1=O)Nc1ccccc1Sc1ccc(Cl)cc1 (stereo not shown) [Compound 12] | neither 12 nor 16 displayed significant inhibitory activity | neither 12 nor 16 displayed significant inhibitory activity |
| O=C(CN1C(=O)NC2(CCCCCC2)C1=O)Nc1ccccc1Sc1ccccc1 [Compound 16] | neither 12 nor 16 displayed significant inhibitory activity | neither 12 nor 16 displayed significant inhibitory activity |
